In patent publication US10639306B2, “Aldose reductase inhibitors and uses thereof” (The Trustees of Columbia University in the City of New York, priority 2010, dated 2020):
Read-outs that look alike come from different tables or passages of the source.

How the values were obtained:
[1] = Solubility in Krebs-Henseleit buffer; type: physicochemical; conditions: Krebs-Henseleit buffer with glucose, palmitate, bovine serum albumin, insulin
[2] = type: physicochemical; conditions: for Area (integration of absorbance peak): 3 min, pH 7.1
Protocol: Each sample of Compound A & zopolrestat were placed, separately, in water (MQW ultra nanopure) at ambient temperature and vortexed for 3 minutes. The aliquots were then filtered through a tightly-packed cotton plug (placed in a pipette) to remove any residual solids. The attempted concentrations of the respective solutions of Compound A and zopolrestat made were 0.05 mg/mL, 0.1 mg/mL, 0.5 mg/mL, 1.0 mg/mL, 5.0 mg/mL, and 10.0 mg/mL. The pH of the water used was 7.1 (measured electronically by an Orion perpHect LogR Meter Model #370).
The filtered samples were run through a binary gradient (program: 5%-100% MeCN over 30 mins) on a LC-MS (Shimadzu LCMS-2010A Liquid Chromatography Mass Spectrometer, reverse-phase column). A 5 μL volume of each sample solution was injected for each run. Each trace contained a peak (for Compound A, TR approx. 14.070 mins; for zopolrestat, TR approx. 16.666 mins) measured at a wavelength of 254 nm for which the respective parent ion masses were observed.
By comparing the absorbance areas under the peaks corresponding to Compound A & zopolrestat in each water solution made (Table 1), a solubility curve for each compound was generated (FIG. 1).

[3] = molecular target: human recombinant aldose reductase (Homo sapiens, UniProt P15121); assay: biochemical
Protocol: The reductase activity of Compound A and zopolrestat were spectrophotometrically assayed by following the decrease of NADPH at 25° C. for 4 min as described in Sato, S. (1992), “Rat kidney aldose reductase and aldehyde reductase and polyolproduction in rat kidney” Am. J. Physiol. 263, F799.F805, incorporated by reference herein in its entirety.
Briefly, the reaction mixture (total volume 1 ml) contained 0.1 mM NADPH, 100 mM substrate (DL-glyceraldehyde or L-xylose) and human recombinant aldose reductase (100 mU) in 0.1 M phosphate buffer, pH 6.2. The head to head experiment was carried out in a microplate assay for AR inhibition using D-Glyceraldehyde and NADPH and the absorbance changes were monitored at 340 nm and % inhibition was calculated for ARIs at concentrations ranging from 0.1 nM to 100 μM (Table 2 and FIG. 2). Data is presented as mean±standard deviation and is an average of 5 separate runs. The reaction was started by adding the substrate (glyceraldehyde or xylose) as well as the same reaction mixture in which the substrate replaced by deionized water was used as a control. One enzyme unit (U) was defined as the activity consuming 1 μmole of NADPH per min at 25° C.

| Structure (SMILES) | melting point | Solubility in Krebs-Henseleit buffer [1] | Solubility in pH 7.1 water relative to Zopolrestat [2] | Area (integration of absorbance peak) ([2]; 0.05 mg/mL) | Area (integration of absorbance peak) ([2]; 0.1 mg/mL) | Area (integration of absorbance peak) ([2]; 0.5 mg/mL) | Area (integration of absorbance peak) ([2]; 1 mg/mL) | Area (integration of absorbance peak) ([2]; 5 mg/mL) | Area (integration of absorbance peak) ([2]; 10 mg/mL) | IC50 [3] | Activity relative to zopolrestat in vitro against aldose reductase ([3]; fold more active than zopolrestat) | inhibition at 1 pM [3] | inhibition at 10 pM [3] |
| --- | --- | --- | --- | --- | --- | --- | --- | --- | --- | --- | --- | --- | --- |
| O=C(O)Cc1nn(Cc2nc3cc(Cl)ccc3s2)c(=O)c2nccnc12 | 196 to 197 °C | – | – | – | – | – | – | – | – | – | – | – | – |
| O=C(O)Cc1nn(Cc2nc3cc(C(F)(F)F)ccc3s2)c(=O)c2nccnc12 [Compound A, 2-(8-oxo-7-((5-(trifluoromethyl)benzo[d]thiazol-2-yl)methyl)-7,8-dihydropyrazino[2,3-d]pyridazin-5-yl)acetic acid] | – | soluble without any precipitation or turbidity | significantly greater solubility | 1811131 | 3221003 | 5814304 | 10515430 | 17216187 | 20397336 | 0.0289 nM | approximately 100 × | – | – |
| O=C(O)Cc1nn(Cc2nc3cc(C(F)(F)F)ccc3s2)c(=O)c2ccccc12 [zopolrestat, reference compound] | – | heat was applied to render zopolrestat soluble | – | 1039247 | 1899466 | 4304556 | 6129559 | 13314544 | 13362465 | – | – | 11% | 29% |
